According to US7253286B2, “Nitrogen-containing aromatic derivatives” (Eisai Co., Ltd, priority 2000, dated 2007):

Legend:
[1] = test system: Human Umbilical Vein Endothelial Cells (HUVECs); test: Inhibition against invasive tube formation by vascular endothelial cells in response to stimulation by angiogenic factor mixture; assay type: cell-based; design: key: the number of tubes formed in the absence of the test substance was designated as +++; scored on the 5-level scale of +++, ++, +, +/−, −; scored on the 5-level scale of +++, ++, +, +/−, −; scored on the 5-level scale of +++, ++, +, +/−, −; − was assigned if absolutely no tubes formed; conditions: HUVEC on fibrin gel, EGF/FGF2/VEGF/HGF/TNF-α mixture, 6th day, MTT staining; for number of tubes formed in the fibrin gel (score) at 0.01 μM: test substance 0.01 μM; for number of tubes formed in the fibrin gel (score) at 0.1 μM: test substance 0.1 μM; for number of tubes formed in the fibrin gel (score) at 1.0 μM: test substance 1.0 μM
Description: Inhibition Against Invasive Tube Formation by Vascular Endothelial Cells in Response to Stimulation by Angiogenic Factor Mixture
Human Umbilical Vein Endothelial Cells (HUVECs) were isolated according to a reported method (Shinseikagaku Jikken Koza [New Biochemistry Experiment Lectures], “Saibo Baiyo Gijutsu” [Cell Culturing Techniques], p.197–202), and were cultured in a 5% CO2 incubator (37° C.) using EGM-2 medium (purchased from Clonetics Corp.) until the cells reached confluency. After adding 0.4 ml of bovine fibrinogen (purchased from Sigma Co.) to the inner well of a Transwell culturing plate (purchased from Coster Inc.), it was hardened with 0.7 units/ml of thrombin (purchased from Sigma Co.). The HUVECs were recovered using trypsin-EDTA and then suspended in human endothelial serum free medium basal growth medium (hereinafter abbreviated as SFM, purchased from GIBCO BRL), and 0.4 ml of the cell suspension (1.4×10^5 cells) was seeded onto the hardened fibrin gel and cultured for approximately 4 hours in a 5% CO2 incubator (37° C.). After 4 hours, there was added to the outer chamber of the Transwell 1.5 ml of an SFM solution containing a mixture of angiogenic factors {10 ng/ml EGF (purchased from GIBCO BRL), 30 ng/ml FGF2 (purchased from GIBCO BRL), 75 ng/ml VEGF (purchased from Wako Pure Chemical Industries Co., Ltd.), 50 ng/ml HGF (purchased from R&D Co.) and 7.5 ng/ml TNF-α (purchased from Genzyme Corp.) [The concentrations of the angiogenic factors differed slightly according to the HUVEC lot.]} and a diluted test substance, and culturing was carried out in a 5% CO2 incubator (37° C.). On the 2nd and 4th days after adding the test substance, the medium was exchanged with 1.5 ml of freshly prepared SFM solution containing the angiogenic factor mixture and test substance. Upon aspirating off the culture supernatant in the inner well on the 6th day after the initial addition of the test substance, 0.4 ml of a 3.3 mg/ml MTT solution dissolved in PBS (purchased from Sigma Corp.) was added and culturing was performed for approximately 1 hour in a 5% CO2 incubator (37° C.). The number of tubes formed in the fibrin gel stained with MTT was scored based on microscope observation. Specifically, the number of tubes formed in the absence of the test substance was designated as +++, while − was assigned if absolutely no tubes formed. The number of tubes formed in the presence of the test substance was scored on the 5-level scale of +++, ++, +, +/−, − to evaluate the strength of inhibition of the test substance.

[2] = biological target: T1, VEGFR2 (Homo sapiens, UniProt P35968); test: Inhibition against VEGFR2 kinase (receptor tyrosine kinase activity, HTRF method); assay type: biochemical; conditions: His6-VEGFR2 cytoplasmic domain, biotin-poly(GT) substrate, ATP, 30° C. 10 minutes, read-out: IC50 (concentration required for 50% inhibition of VEGFR2 kinase activity)
T1 construct: coding for the cytoplasmic domain, beginning with lysine 791 and including the termination codon; made in house; host or cells: Sf9 insect cells (baculovirus, pFastBacHis)
T1 sequence (P35968 786-1356 limits assumed): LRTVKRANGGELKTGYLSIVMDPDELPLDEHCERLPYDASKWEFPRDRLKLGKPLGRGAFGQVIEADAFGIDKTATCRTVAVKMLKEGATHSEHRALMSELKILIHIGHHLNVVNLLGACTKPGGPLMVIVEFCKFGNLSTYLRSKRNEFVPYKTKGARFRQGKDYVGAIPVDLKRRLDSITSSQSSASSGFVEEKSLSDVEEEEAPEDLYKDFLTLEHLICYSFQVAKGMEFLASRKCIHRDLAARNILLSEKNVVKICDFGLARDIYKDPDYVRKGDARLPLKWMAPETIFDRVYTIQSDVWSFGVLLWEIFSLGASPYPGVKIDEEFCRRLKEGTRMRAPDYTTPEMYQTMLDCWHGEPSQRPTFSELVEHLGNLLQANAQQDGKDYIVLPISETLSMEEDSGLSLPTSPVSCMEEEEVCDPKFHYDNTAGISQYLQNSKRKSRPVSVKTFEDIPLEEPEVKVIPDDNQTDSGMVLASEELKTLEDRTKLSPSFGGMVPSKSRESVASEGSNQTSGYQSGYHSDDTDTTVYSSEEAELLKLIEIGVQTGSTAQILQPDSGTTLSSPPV
Text: Measurement of Inhibition Against Receptor Tyrosine Kinase Activity
This assay is used to determine inhibition of a test substance on tyrosine kinase activity. DNA coding for the cytoplasmic domain of VEGFR2 is obtained by total cDNA synthesis (Edwards M, International Biotechnology Lab 5(3), 19–25, 1987) or by cloning. Expression in an appropriate expression system can produce a polypeptide with tyrosine kinase activity. […] For VEGFR2 (Genbank Accession No. L04947), the 1.7 kb DNA fragment described by Terman et al. (Oncogene, 6(9), 1677–1683, 1991), coding for the cytoplasmic domain, beginning with lysine 791 and including the termination codon, was isolated from a human placental cDNA library (purchased from Clontech Laboratories, Inc.) and cloned in a Baculovirus expression vector (pFastBacHis, purchased from GIBCO BRL) The recombinant construct was transfected into insect cells (Spondoptea frugiperda9 (Sf9)) to prepare a recombinant Baculovirus. (Instructions for preparation and use of recombinant Baculovirus maybe found in standard texts, such as “Bac-To-Bac Baculovirus Expression System” (GIBCO BRL).) The cytoplasmic fragment starting from lysine 398 (FGFR1, Genbank Accession No. X52833), the cytoplasmic fragment starting from lysine 558 (PDGFRβ, Genbank Accession No. M21616) or the cytoplasmic fragment starting from lysine 974 (HGFR, Genbank Accession No. J02958) may be cloned and expressed by the same method for use in assays for other tyrosine kinases. EGFR was purchased from Sigma Co. (Product No. E-2645).
For expression of the VEGFR2 tyrosine kinase, Sf9 cells were infected with the VEGFR2 recombinant virus and collected after 48 hours. The collected cells were rinsed with ice-cooled phosphate buffered saline (PBS) and then resuspended using 20 ml of ice-cooled Lysis Buffer (50 mM Tris-HCl (pH 8.5), 5 mM 2-mercaptoethanol, 100 mM KCl, 1 mM phenylmethylsulfonyl fluoride, 1% (v/v) NP-40) per 1.5×10^8 cells. The suspension was centrifuged at 12,000 rpm for 30 minutes at 4° C. and the supernatant was obtained.
The supernatant was added to a Ni—NTA agarose column (3 ml, purchased from Qiagen) equilibrated with Buffer A {20 mM Tris-HCl (pH 8.5), 5 mM 2-mercaptoethanol, 500 mM KCl, 20 mM imidazole, 10% (v/v) glycerol}. The column was washed with 30 ml of Buffer A, and then with 6 ml of Buffer B {20 mM Tris-HCl (pH 8.5), 5 mM 2-mercaptoethanol, 1M KCl, 10% (v/v) glycerol}, and finally with 6 ml of Buffer A. After washing, it was eluted with 6 ml of Buffer C {20 mM Tris-HCl (pH8.5), 5mM2-mercaptoethanol, 100 mMKCl, 100 mM imidazole, 10% (v/v) glycerol}. The eluate was placed on a dialysis membrane (purchased from Spectrum Laboratories) and dialyzed with a dialysis buffer {20 mM Tris-HCl (pH 7.5), 10% (v/v) glycerol, 1 mM dithiothreitol, 0.1 mM Na3VO4, 0.1 mM EGTA}. After dialysis, it was supplied for SDS-electrophoresis, and the recombinant protein (His6-VEGFR2, cytoplasmic domain of VEGFR2 fused with 6 histidine residues at the N-terminus) detected at a molecular weight of approximately 100 kDa with Coumassie Brilliant Blue staining was assayed using BSA (bovine serum albumin, purchased from Sigma Co.) as the standard substance, and stored at −80° C. until use. Using the same method for the cytoplasmic domains of FGFR1, PDGFRβ and HGFR yielded respective recombinant proteins fused with 6 histidine residues at the N-termini (His6-FGFR1, His6-PDGFRβ or His6-HGFR).
The tyrosine kinase reaction was conducted as follows. […]

[3] = test system: Human Umbilical Vein Endothelial Cells (HUVECs); test: Inhibition against sandwich tube formation by vascular endothelial cells in response to stimulation by VEGF; assay type: cell-based; conditions: HUVEC in collagen gel sandwich, stimulation by VEGF (25 ng/ml VEGF and 10 ng/ml EGF), 4th day, total tube length, read-out: IC50 (concentration required for 50% inhibition of tube formation)
Outline: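 HUVECs were sandwiched between collagen gel layers in serum-free medium with 25 ng/ml VEGF plus 10 ng/ml EGF, with test substance added above the gel at 37 °C. On day 4 tubes were MTT-stained and total tube length measured by image analysis. IC50 is the concentration halving tube length relative to no-compound wells.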

Compound: COc1cc2nccc(Oc3ccc(N(C)C(=O)Nc4ccc(F)cc4)cc3)c2cc1C(N)=O [Example 348]
- number of tubes formed in the fibrin gel (score) at 0.01 μM [1]: +/−
- number of tubes formed in the fibrin gel (score) at 0.1 μM [1]: −
- number of tubes formed in the fibrin gel (score) at 1.0 μM [1]: −
- IC50 [2]: 4.6 nM

Compound: COc1cc2nccc(Oc3ccc(NC(=O)Nc4ccc(F)cc4)cc3)c2cc1NS(C)(=O)=O [Example 266, N-(4-{4-[3-(4-Fluorophenyl)ureido]phenoxy}-7-methoxyquinolin-6-yl)methanesulfoneamide]
- IC50 [2]: 5.4 nM
- IC50 [3]: 0.6 nM

Compound: COCCOc1cc2nccc(Oc3ccc(NC(=O)Nc4nccs4)c(F)c3)c2cc1C#N [Example 25, N-(4-(6-cyano-7-(2-methoxyethoxy)-4-quinolyl)oxy-2-fluorophenyl)-N′-(1,3-thiazol-2-yl)urea]
- number of tubes formed in the fibrin gel (score) at 0.01 μM [1]: ++
- number of tubes formed in the fibrin gel (score) at 0.1 μM [1]: +/−
- number of tubes formed in the fibrin gel (score) at 1.0 μM [1]: +/−
- IC50 [2]: 5.5 nM

Compound: CONC(=O)c1cc2c(Oc3ccc(NC(=O)Nc4nccs4)cc3)ccnc2cc1OC [Example 346, N6-Methoxy-7-methoxy-4-(4-(((1,3-thiazol-2-ylamino)carbonyl)amino)phenoxy)-6-quinolinecarboxamide]
- IC50 [2]: 4.6 nM
- IC50 [3]: 25 nM

Compound: COc1cc2nccc(Oc3ccc(NC(=O)NC4CC4)c(Cl)c3)c2cc1C(=O)NCC#N [Example 441, N6-Cyanomethyl-4-(3-chloro-4-(((cyclopropylamino)carbonyl)amino)phenoxy)-7-methoxy-6-quinolinecarboxamide]
- IC50 [2]: 2.8 nM
- IC50 [3]: 3.6 nM

Compound: NC(=O)c1cc2c(Oc3ccc(NC(=O)NC4CC4)c(Cl)c3)ccnc2cc1OCCCN1CCOCC1 [Example 382, 4-(3-Chloro-4-(cyclopropylaminocarbonyl)aminophenoxy)-7-(3-(4-morpholino)propoxy)-6-quinolinecarboxamide]
- IC50 [2]: 9 nM
- IC50 [3]: 4.6 nM

Compound: O=C(Nc1ccc(Oc2ncnc3[nH]c(-c4ccccn4)cc23)cc1F)NC1CC1 [Example 283, 1-Cyclopropyl-3-[2-fluoro-4-(6-(pyridin-2-yl)-7H-pyrrolo[2,3-d]pyrimidin-4-yloxy)phenyl]urea]
- IC50 [2]: 26 nM
- IC50 [3]: 36 nM

Compound: O=C(Nc1ccc(Oc2ncnc3[nH]c(-c4ccc(OC[C@H](O)CN5CCCC5)cc4)cc23)cc1Cl)NC1CC1 [Example 159, 1-(2-Chloro-4-{6-[4-((2R)-2-hydroxy-3-pyrrolidinopropoxy)phenyl]-7H-pyrrolo[2,3-d]pyrimidin-4-yloxy]phenyl}-3-cyclopropylurea]
- IC50 [2]: 25 nM
- IC50 [3]: 0.6 nM

Compound: COCCOc1cc2nccc(Oc3ccc(NC(=O)NC4CC4)c(Cl)c3)c2cc1C(N)=O [Example 381, 4-(3-Chloro-4-(cyclopropylaminocarbonyl)aminophenoxy)-7-(2-methoxyethoxy)-6-quinolinecarboxamide]
- IC50 [2]: 2.6 nM
- IC50 [3]: 4.7 nM

Compound: COc1cc2nccc(Oc3ccc(NC(=O)NC4CC4)cc3)c2cc1C(N)=O [Example 121, 4-(4-((Cyclopropylamino)carbonyl)aminophenoxy)-7-methoxy-6-quinolinecarboxamide]
- IC50 [2]: 8.7 nM
- IC50 [3]: 42 nM

Compound: CCCC(=O)Nc1cc(Oc2ccc(NC(=O)Nc3ccc(F)cc3)cc2)ccn1 [Example 463, N-[4-(2-Butanoylaminopyridin-4-yl)oxyphenyl]-N′-(4-fluorophenyl)urea]
- IC50 [2]: 5.9 nM
- IC50 [3]: 26 nM

Compound: COCCOc1cc2nccc(Sc3ccc(NC(=O)Nc4ccc(F)cc4)s3)c2cc1C#N [Example 253, 1-{5-[6-Cyano-7-(2-methoxyethoxy)-quinolin-4-ylsulfanyl]thiophen-2-yl}-3-(4-fluorophenyl)urea]
- IC50 [2]: 23 nM
- IC50 [3]: 40 nM

Compound: COCCOc1cc2nccc(Oc3ccc(NC(=O)NC4CC4)cc3)c2cc1C(N)=O [Example 116, 4-(4-((Cyclopropylamino)carbonyl)aminophenoxy)-7-(2-methoxyethoxy)-6-quinolinecarboxamide]
- IC50 [2]: 4.2 nM
- IC50 [3]: 8.1 nM

Compound: COCCOc1cc2nccc(Oc3ccc(NC(=O)Nc4ccccc4)cc3)c2cc1C#N [Example 65, N-(4-(6-cyano-7-(methoxyethoxy)-4-quinolyl)oxyphenyl)-N′-phenylurea]
- IC50 [2]: 15 nM
- IC50 [3]: 5.9 nM

Compound: COc1cc2nccc(Oc3ccc4c(ccn4C(=O)NCCF)c3)c2cc1C(N)=O [Example 314, 6-Carbamoyl-4-[1-(2-fluoroethylcarbamoyl)1H-indol-5-yloxy]-7-methoxyquinoline]
- IC50 [2]: 5.3 nM
- IC50 [3]: 4.2 nM

Compound: COc1cc2nccc(Oc3ccc(NC(=O)Nc4ccc(F)cc4)cc3)c2cc1NC(C)=O [Example 265, N-(4-{4-[3-(4-Fluorophenyl)ureido]phenoxy}-7-methoxyquinolin-6-yl)acetamide]
- IC50 [2]: 6.2 nM
- IC50 [3]: 0.6 nM
